We go through three molecules from patent publication US4877782A, “Zinc ceftiofur complexes” (The Upjohn Company, priority 1988, dated 1989).

Counter-ions that a name gives are not always drawn. Like-named read-outs stand apart in the source and are kept apart here.

Series [1] has as its system Salmonella typhimurium UC6164. The series can be described thus: standard mouse challenge test against Salmonella typhimurium UC6164 (survival, ED50). The series is classed as in vivo. The conditions noted are these: for ED50: mice, s.c., adjusted for drug potency, 95% confidence limits. The method, then:
(§1) Each test compound was suspended or dissolved in sterile Vehicle 122 (0.025% carboxymethylcellulose in water) to a starting test concentration sufficient to provide in the first set of test animals a concentration of the test drug of 2 mg./kg. Portions of each such test drug formulation were diluted seriatim 50:50 v/v with water to reduce the concentration of the test drug in the test animal to 1 mg./kg., then to 0.5 mg./kg., to 0.25 mg./kg. and finally to 0.125 mg./kg. Sets of mice were injected with the test dilutions of the test drugs subcutaneously once or three times after injecting challenge doses lethal doses of one of the above-named bacterial organisms. The sets of animals were observed over six days to determine the number of surviving mice. The mortality ratios were noted and the ED50 values were calculated for each test drug by standard methods.

A short description of series [2]: dissolution rate in water. The series is classed as physicochemical. The conditions noted are these: for percent in aqueous solution in 20 minutes: ceftiofur hydrochloride unmicronized.
The nature of a further series: bulk density. The series is classed as physicochemical.
The subject of series [3] is Pasteurella multocida UC9581. The series can be described thus: standard mouse challenge test against Pasteurella multocida UC9581 (survival, ED50). The conditions noted are these: for ED50: mice, s.c., adjusted for drug potency, 95% confidence limits. The series is classed as in vivo. As to the method:
as §1

The nature of series [4]: dispersibility in water, organic solvents and vegetable oils. The series is classed as physicochemical. The conditions noted are these: in words.
Where [5] appears, read: 20 minutes, comparable equilibration conditions.
Where [6] appears, read: zinc ceftiofur hydrochloride vs. non-complexed hydrochloride salt.
The mark [7] stands for this setting: mouse challenge, in words, from ED50 numbers of Table I.

On to `CO/N=C(\C(=O)N[C@@H]1C(=O)N2C(C(=O)O)=C(CSC(=O)c3ccco3)CS[C@H]12)c1csc(N)n1` [ceftiofur sodium], for which the ED50 in series [1] (UC6164, 1000 LD50's, 1X treatment, 8640 min, listed as C--Na) was found to be 1.1 mg/kg/day. For the same molecule, the “solubility in water after 20 minutes” value in series [2] (20 minutes, comparable equilibration conditions, zinc complex unmicronized) is 100%. Also, the “dissolution rate curves (percent dissolved over time)” value in series [2] (in words, compared with sodium ceftiofur and ceftiofur hydrochloride) is recorded as “dissolves quite quickly in water”. In addition, the bulk density in the series “bulk density” (zinc ceftiofur sodium complex from water vs. ceftiofur sodium salt) came out at 0.11 g/mL.

Regarding `CO/N=C(\C(=O)N[C@@H]1C(=O)N2C(C(=O)O)=C(CSC(=O)c3ccco3)CS[C@H]12)c1csc(N)n1` [ceftiofur hydrochloride], the ED50 in series [1] (Salmonella enterica, sc, 144 h, UC6164, 579 LD50's, 1X treatment, read-out: ED50) was determined as 1.7 mg/kg; in series [1] (Salmonella enterica, sc, 144 h, UC6164, 1000 LD50's, 1X treatment, read-out: ED50), 1.3 mg/kg; in series [1] (Salmonella enterica, sc, 144 h, UC6164, 1000 LD50's, 3X treatments, read-out: ED50), 2.3 mg/kg; in series [3] (Pasteurella multocida, sc, 144 h, UC9581, 27 LD50's, 3X treatments, read-out: ED50), 0.3 mg/kg. In series [2] (setting [5]), the “percent in aqueous solution in 20 minutes” value is on record as 74%. For the same molecule, the bulk density in the series “bulk density” (setting [6]) came to 0.15 g/mL. For the same molecule, the “distribution in pharmaceutical aqueous vehicle formulations” value in series [4] is recorded as “less well adapted for distribution in pharmaceutical aqueous vehicle formulations”.

With “zinc ceftiofur hydrochloride complex [Compound II]”, the ED50 in series [1] (UC6164, 579 LD50's, 1X treatment, 8640 min) was 1.0 mg/kg/day; in series [1] (UC6164, 1000 LD50's, 1X treatment, 8640 min), 3.3 mg/kg/day; in series [1] (UC6164, 1000 LD50's, 3X treatments, 8640 min), 2.1 mg/kg/day; in series [3] (UC9581, 27 LD50's, 3X treatments, 8640 min), 0.4 mg/kg/day; in series [3] (UC9581, 303 LD50's, 1X treatment, 8640 min), 0.3 mg/kg/day. The antibiotic protection entry in series [1] (setting [7]) and in series [3] (setting [7]) was “potent antibiotic protection” in each case. Also, in series [2] (setting [5]), the “percent in aqueous solution in 20 minutes” value is on record as 48%. In addition, the rate of dissolution result in series [2] (in words, compared to ceftiofur hydrochloride) is reported as “much slower compared to ceftiofur hydrochloride”. The bulk density entry in “bulk density” (setting [6]) is recorded as “about 0.24 g./ml”. For the same molecule, in series [4] (granular powders), the “dispersibility in water and in common pharmaceutical organic solvents and vegetable oils” value is on record as “readily dispersible in water”.
